Results on 7 molecules are retold here after patent US5348941A, “Stabilizers for fibroblast growth factors” (Merck & Co., Inc., priority 1992, dated 1994).

Test [1] deals with BALB/c 3T3 A31 fibroblasts. In words: Fibroblast mitogenic assay ([3H]-thymidine incorporation into DNA). Format: cell-based. Details: Bioactivity (mitogenic activity of aFGF in the presence of ligand): unit not given here. Particulars: for mitogenic activity of aFGF: absence of heparin; for Bioactivity (mitogenic activity of aFGF in the presence of ligand): complete absence of heparin, < = response did not plateau, * = cell death observed. On the procedure:
Biological activity of the formulation of the instant invention is determined by a modification of the fibroblast mitogenic assay as described by Linemeyer et al. in European Patent Application, Publication No. 259,953. BALB/c 3T3 A31 fibroblasts (American Type Culture Collection) are plated at about 3×10^5 cells per 32 cm^2 wells in culture media containing about 10% heat-inactivated calf serum and incubated in about 7% CO2 (pH 7.35±0.05). The cells become fully quiescent by replacing the media with serum free media at about 6, about 24 hours and about 48 hours later. At about 53 hours after plating samples of the various formulations are added and about 0.12 μg of dexamethasone are added. At about 65 hours each well is supplemented with about 0.4 μCi of [methyl-^3 H]-thymidine (20 Ci/mmole, Dupont) and 0.6 μg of unlabeled thymidine (Sigma), and at 80 hours the cells are processed for determination of radiolabel incorporation into DNA. Each dose-response point is the average of at least quadruplicate determinations. Other cell types such vascular endothelial cells and corneal endothelial cells can be employed to determine in vitro mitogenicity. The procedures are described in detail by Thomas et al., Proc. Natl. Acad. Sci. USA 82:6409-6431 (1985).
^(d) Mitogenic activity of aFGF was measured in the presence of ligan
indicated in the complete absence of heparin.
*indicates cell death observed during assay.
Biological activity of the formulation of the instant invention was determined by a modification of the fibroblast mitogenic assay as described by Linemeyer et al. in European Patent Application, Publication No. 259,953. BALB/c 3T3 A31 fibroblasts (American Type Culture Collection) were plated at 3×10^5 cells per 32 cm^2 well in culture media containing about 10% heat-inactivated calf serum and incubated in 7% CO2 (pH 7.35±0.05). The cells become fully quiescent by replacing the media with serum free media at 6, 24 hours and 48 hours later. At 53 hours after plating samples of the various formulations were added and 0.12 μg of dexamethasone was added, at 65 hours each well was supplemented with 0.4 μCi of [methyl-^3 H]-thymidine (20 Ci/mmole, Dupont) and 0.6 μg of unlabeled thymidine (Sigma), and at 80 hours the cells were processed for determination of radiolabel incorporation into DNA. Each dose-response point is the average of at least quadruplicate determinations. Other cell types such vascular endothelial cells and corneal endothelial cells can be employed to determine in vitro mitogenidty. The procedures are described in detail by Thomas et al., Proc. Natl. Acad. Sci. USA 82:6409-6431 (1985).
A general note: Uptake of a labelled nucleoside into DNA is a usual measure of proliferation.

The target of another test is T1, aFGF (Homo sapiens, UniProt P05230).
T1 construct: The recombinant derived, 140 amino add form is the preferred form of aFGF; N-terminal methionine (MetHaFGF); made in house; host or cells: microbial cells (preferred embodiment)
The test can be described thus: Thermal denaturation (Tm) of aFGF by circular dichroism. Format: biochemical. The settings on record: for Tm of aFGF (maximum Tm induced by ligand), circular dichroism: PBS pH 7.2, excess ligand (1-3X by weight; 120 mM sodium sulfate, 10 mM tetrapolyphosphate); for Tm of aFGF, circular dichroism: 3X ligand by weight. Background: Circular dichroism is the unequal absorption of left and right circularly polarised light.

T1 sequence (P05230 16-155 limits assumed): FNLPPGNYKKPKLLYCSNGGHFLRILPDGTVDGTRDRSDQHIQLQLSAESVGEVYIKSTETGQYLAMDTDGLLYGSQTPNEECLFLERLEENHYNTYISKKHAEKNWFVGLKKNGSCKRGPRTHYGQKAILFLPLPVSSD

In the case of `O=P(O)(O)OP(=O)(O)OP(=O)(O)OP(=O)(O)O` [Tetrapolyphosphate], in test [1], the “mitogenic activity of aFGF” value is on record as “did not show any appreciable mitogenic activity” and the “Bioactivity (mitogenic activity of aFGF in the presence of ligand)” value (“Bioactivity” below) is on record as < 0.25. Also, the “Tm of aFGF (maximum Tm induced by ligand), circular dichroism” value on aFGF stood at 66 °C.

For the molecule heparin [reference compound], the “Bioactivity” value in test [1] amounted to 4.2. Also, on aFGF, the “Tm of aFGF, circular dichroism” value was found to be 64 °C and the “Tm of aFGF (maximum Tm induced by ligand), circular dichroism” value stood at 64 °C.

For dextran sulfate, the “Bioactivity” value in test [1] came out at 5.0. For the same molecule, the “Tm of aFGF (maximum Tm induced by ligand), circular dichroism” value on aFGF worked out at 62 °C.

As for `O=P(O)(O)O[C@H]1[C@H](OP(=O)(O)O)[C@@H](OP(=O)(O)O)[C@H](OP(=O)(O)O)[C@@H](OP(=O)(O)O)[C@H]1OP(=O)(O)O` [Inositol hexaphosphate, inositol hexaphosphate], in test [1], the “mitogenic activity of aFGF” value is listed as “did not show any appreciable mitogenic activity” and the “Bioactivity” value is given as < 0.6. At aFGF, the “Tm of aFGF (maximum Tm induced by ligand), circular dichroism” value worked out at 70 °C.

Turning to sulfated β-cyclodextrin, the “Bioactivity” value in test [1] is 3.7. Besides, at aFGF, the “Tm of aFGF, circular dichroism” value stood at 65 °C and the “Tm of aFGF (maximum Tm induced by ligand), circular dichroism” value came out at 65 °C.

Take “low molecular weight heparin [Low MW heparin, reference compound]”: in test [1], the “Bioactivity” value is 4.0. Further, the “Tm of aFGF (maximum Tm induced by ligand), circular dichroism” value on aFGF was determined as 66 °C.

On to `O=S(=O)(O)OC1C(OS(=O)(=O)O)C(OS(=O)(=O)O)C(OS(=O)(=O)O)C(OS(=O)(=O)O)C1OS(=O)(=O)O` (stereo not drawn) [Inositol hexasulfate, inositol hexasulfate], for which, in test [1], the “Bioactivity” value was found to be 2.3. Also, the “Tm of aFGF (maximum Tm induced by ligand), circular dichroism” value at aFGF amounted to 66 °C.
